In patent US12029715B2, “Precursor compounds for providing retinoids of the vitamin A5 pathway and uses thereof” (UNIVERSITY OF DEBRECEN, priority 2015, dated 2024):
Entries after “also recorded” stand apart in the source; their conditions may differ. Values belong to the molecule of their own block, whether it stands above or below them.

Assays:
hRXRα LBD = biological target: T1, hRXRα LBD (Homo sapiens, UniProt P19793); experiment: Fluorescence quenching assay, binding to RXRα LBD
T1 sequence (P19793 223-462): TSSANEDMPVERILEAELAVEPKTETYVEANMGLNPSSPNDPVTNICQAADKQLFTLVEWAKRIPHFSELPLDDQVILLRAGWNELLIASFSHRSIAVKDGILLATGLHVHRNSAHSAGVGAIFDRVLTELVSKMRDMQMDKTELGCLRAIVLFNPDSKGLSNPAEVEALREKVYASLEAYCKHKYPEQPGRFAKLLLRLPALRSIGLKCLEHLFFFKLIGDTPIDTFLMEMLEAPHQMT
Procedure: Quenching of tryptophan fluorescence was monitored at 10° C. using 5 nm of excitation and 5 nm of emission slit-width.

[1] = tested on: differentiating monocyte-derived human dendritic cells; experiment: DNA microarray in differentiating monocyte-derived dendritic cells; type: cell-based
Procedure: The generation and transcriptional analysis of differentiating DCs were performed as described previously [Szeles L et al. 2010]. Microarray data were deposited into the Gene Expression Omnibus database under accession no. GSE48573.
The generation and analysis of differentiating DCs were performed as described previously [Szeles L et al. 2010] with minor modifications. Briefly, human monocytes were isolated from healthy volunteer's buffy coat, obtained with a Regional Ethical Board permit from the Regional Blood Bank and isolated by Ficoll gradient centrifugation followed by immunomagnetic cell separation, and were cultured in the presence of GM-CSF and IL-4. Differentiating DCs were stimulated 18 h after […] by various agonists for 12 h. The ligands were used in the following concentrations: 10 μM (R)-9CDHRA, 10 μM (S)-9CDHRA, 1 μM 9cisRA, 100 nM LG100268, 1 μM GW3965, 1 μM Rosiglitazone (RSG), 1 μM GW1516, 100 nM AM580. Experiments were performed in biological triplicates. Samples were processed and hybridized to Human Genome U133 Plus 2.0 Arrays. Data were analysed using to GeneSpring 12.6.1 software. In detail, normalization was performed using RMA summarization algorithm. […] Microarray data were deposited into the Gene Expression Omnibus database under accession no. GSE48573.

[2] = tested on: Rbp1−/−, Rxrγ−/− and WT mice; experiment: Delayed non-match to place (DNMTP) working memory task in the T-maze; type: in vivo, mouse
Procedure: Behaviorally naïve groups of mice were tested in the DNMTP (delayed non-match to place) procedure in the T-maze according to a protocol previously described (Wietrzych et al., 2005), with modifications to facilitate pharmacological tests (Wietrzych-Schindler et al., 2011). Spontaneous alternation was evaluated in the Ymaze apparatus according to protocol described in detail below.
Specifically, in the present protocol, animals were first trained for 10 consecutive days with minimal inter-trial intervals (ITI) of about 15 sec, which was necessary to attain the criterion of 90% or more of correct choices during […] consecutive days (days 9-10). After this period ITI was increased semi-randomly by blocks of 3-6 min during 5 consecutive days (days 11-15 indicated) to determine “test ITI” for each animal, which was defined as the shortest ITI at which mice perform at chance level. From day 16 mice were tested using corresponding “test ITI” delays following vehicle injection on the day 16 (to test for the effect of vehicle alone) and following 9CDHROL (40 mg/kg) injection on day 17. Three mice were excluded from testing since their latency to choose the arm during the retention phase exceeded 3 min in more than one trial/day on three consecutive days (exclusion criterion). On the day 18 mice were again injected (IP) with 9CDHROL (40 mg/kg) and 9 hours later sacrificed for chemical analyses. Mice which received vehicle injections on three consecutive days were used as vehicle-treated controls for analyses of 9CDHROL metabolism. An additional group of 3 naïve mice was also injected with 9CDHROL (40 mg/kg) to test for 9CDHROL metabolism following acute treatment.
In this variant, animals were first trained for 9 consecutive days of with minimal inter-trial intervals (ITI) of about 15 sec, which was necessary to attain the criterion of 90% or more of correct choices during three consecutive days (days 7-9). After this period ITI was increased semi-randomly to 180, 360, 720 and for some WT mice also 1080 seconds so that each animal was tested 6 times with each interval during four consecutive days (days 10-13 indicated). From day 13 mice were tested only twice per week beginning with training session on day one (with minimal, 15 sec ITIs) and testing pharmacological treatments on the second day. Only one pharmacological treatment was tested every 7 days. To test pro-mnemonic activities of UVI2108 and (R)-9CDHRA inventors used a minimal ITI, at which mice performed at chance level (50%) and which was 6 min for the Rbp1−/− or Rxrγ−/− groups and 12 min for most WT mice with exception of two mice tested at 18 min. Four mice (two wild types and one of each knockout line), were excluded from testing since their latency to choose the arm during the retention phase exceeded 3 min in more than one trial/day on three consecutive days (exclusion criterion).
For behavioral analysis, 9CDHROL and 9CDHBC were dissolved in ethanol, and then mixed with sunflower oil, so that the final solution contained 3% ethanol. Vehicle treatments consisted of 3% ethanol solution in sunflower oil. For memory studies treatments with 9CDHRA were administered by intraperitoneal injections at volume/weight ratio 3 ml/kg at 7 am and 7 hours before the beginning of testing. For tests with animal model of chronic social defeat, different treatments were administered by intraperitoneal injections at volume/weight ratio 3 ml/kg at 10 mg/kg for each substance between 5-6 pm every second day of stress protocol immediately after the stress session starting from day 1 of the stress protocol.
(§1) Vehicle treatments consisted of 3% ethanol and 3% DMSO solution in sunflower oil. Treatments were administered by intraperitoneal injections at volume/weight ratio 3 ml/kg between 8-10 am and 5-6 h before the test as previously validated (Wietrzych-Schindler M, 2011).

[3] = tested on: Rbp1−/−, Rxrγ−/− and WT mice; experiment: Forced swim test after acute treatment; type: in vivo, mouse; settings: for immobility (despair) in the forced swim test: acute i.p. treatment 5-6 h before the test
Procedure: (§2) The forced swim paradigm was carried out between 1 pm and 4 pm in a 3-litre glass beaker half-filled with water at 22-23° C. (the water depth was 17 cm). All mice were tested only once in this task. To this end, each mouse was lowered gently into the water and the time of immobility was scored during a 6-minute testing period. The mouse was judged immobile when it floated in an upright position and made only small movements to keep its head above the water. After 6 min, the mouse was taken out of the water, left to dry under a red light lamp and returned to its home cage. The immobility scores of each animal were used as an index of despair behavior.
as §1
as §2, with “paradigm (Dalvi and Lucki, 1999)” for “paradigm”, “2-litre” for “3-litre”

[4] = Rbp1−/− mice, ITI of 6 min, acute treatment, (R)-9CDHRA 1 or 2 mg/kg

- Kd (hRXRα LBD): 90 ± 20 nM
SMILES: CC(C=CC1=C(C)CCCC1(C)C)=CC=CC(C)CC(=O)O (stereo not drawn) [9CDHRA, 9-cis-13,14-dihydroretinoic acid]
- expression of genes induced by AM580 (RAR-RXR target genes) [1]: also induced
- transcripts regulated by LG268 (RXR-specific agonist) also regulated ([1]; 72 LG268 transcriptional targets): 68 out of 72

- Kd (hRXRα LBD): 90 ± 20 nM
SMILES: CC1=C(/C=C/C(C)=C\C=C\[C@H](C)CC(=O)O)C(C)(C)CCC1 [(R)-9CDHRA, (9Z,13R)-13,14-Dihydroretinoic Acid]
- working memory performance in DNMTP task [2, 4]: reversed working memory deficits; also recorded: improved memory performance
- correct choices in DNMTP task ([2]; Rxrγ−/− mice, ITI 6 min): 57±7 % of correct choices
- correct choices in DNMTP task ([2]; WT mice, 2 mg/kg, ITI of 12 or 18 min): about 70 % of correct choices
- working memory performance in DNMTP task ([2]; WT mice, ITI of 12 or 18 min): showed pro-mnemonic activity; also recorded: raised performance
- immobility (despair) in the forced swim test ([3]; Rbp1−/− mice): reduce despair behavior; also recorded: reduced in dose dependent manner immobility
- dose attaining maximal effect on immobility in the forced swim test ([3]; Rbp1−/− mice, acute treatment): 1 mg/kg
- immobility time in the forced swim test ([3]; Rxrγ−/− mice, 2 mg treatment): 120 ± 25 s
- overlap in transcriptional changes with 9CRA [1]: about 80%
- share of all transcripts regulated by 9CRA that are similarly regulated by (R)-9CDHRA [1]: 85%
- transcripts similarly regulated by both (R)-9CDHRA and 9CRA ([1]; 10 μM (R)-9CDHRA, 1 μM 9CRA): 384
- number of transcripts regulated ([1]; 10 μM (R)-9CDHRA, 1 μM 9CRA, 12 h, FC>2): 518
- expression of genes that are direct targets of RXR permissive heterodimers (LXR-RXR, PPAR-RXR) and RAR-RXR ([1]; 9CDHRA 10 μM, 9CRA 1 μM, LG268 100 nM, GW3965 1 μM, RSG 1 μM, GW1516 1 μM, AM580 100 nM): induced the expression of genes; also recorded: induce the expression of many genes

SMILES: CC1(C)CCC(C)(C)c2cc(C3(c4ccc(C(=O)O)cc4)OCCO3)ccc21 [UVI2108, reference compound]
- working memory performance in DNMTP task [2, 4]: reversed memory deficits
- working memory performance in DNMTP task ([2]; Rxrγ−/− mice, ITI of 6 min): remained ineffective
- immobility (despair) in the forced swim test ([3]; Rbp1−/− mice): reduced significantly immobility time

SMILES: CC1=C(/C=C/C(C)=C\C=C\C(C)CCO)C(C)(C)CCC1 (stereo not drawn) [9CDHROL, 9-cis-13,14-dihydroretinol]
- working memory performance in DNMTP task ([2]; wild type C57BL6N male mice, 40 mg/kg, 7-9 h after treatment, mean ITI of 13 min, 40 mg/kg): improved working memory performance; also recorded: significantly enhanced memory performance
